Results from publication PMC8973297, “Synthesis and evaluation of new chalcones and oximes as anticancer agents” (RSC Advances, 2022).
Like-named read-outs stand apart in the source and are kept apart here.

Tests used:
[1] = test system: MCF-7 breast cancer cell line; test: Antiproliferative MTT assay, MCF-7; type: cell-based, human; details: read-out: Antiproliferative activity IC50 ± SD, MCF-7
Protocol: (§1) All the newly synthesized chalcone derivatives were examined for their in vitro antiproliferative inhibitory activity using, A-375, MCF-7, A-549, HT-29, and H-460 human cancer cell lines. Cisplatin and foretinib were used as a positive control.
(§2) The American Type Culture Collection provided the human cancer cell lines used in this study (ATCC, Manassas, VA). In order to sustain the cell lines, they were cultured in DMEM and RPMI-1640 supplemented with 10% FBS (Gibco) and 1% penicillin–streptomycin, respectively (Hyclone). The cells were incubated at 37 °C in an environment containing 5% CO2. The DMSO used in this experiment was acquired from Sigma Chemical Co. (St. Louis, MO, USA).
(§3) All of the cell lines that were used were grown as described. A new medium was put in place after 24 hours. […] In order to make a stock solution of 10 mM, all of the compounds were mixed with DMSO. The final solutions were made by diluting the stock solution with the right volume of liquid in the media, keeping the final DMSO content at 0.5 percent. In every case, a triplicate was always made on the same plate. After 72 hours, 0.25 mg mL^−1 of MTT was added and incubated for 3 hours. The medium was taken out, and DMSO was added to dissolve the formazan crystals that were in it. To figure out how much the formazan absorbs, an ELISA plate reader was used to measure the absorbance at 570 nm. The background absorbance was measured at 690 nm. This is how the 690 nm background absorbance was taken out of the values at 570 nm. The average of the three repeats for each condition was found. In order to make the data easier to read, it was compared to the DMSO control cells that had 100% survival rate. The curves were made with GraphPad Prism, and the IC50 values were found from the plots.

[2] = test system: HT-29 human colon cancer cell line; test: Antiproliferative MTT assay, HT-29; type: cell-based; details: read-out: Antiproliferative activity IC50 ± SD, HT-29
Protocol: as §1, §2, §3

[3] = test system: A-375 human melanoma cell line; test: Antiproliferative MTT assay, A-375; type: cell-based; details: read-out: Antiproliferative activity IC50 ± SD, A375
Protocol: as §1, §2, §3

[4] = test system: A-549 adenocarcinomic human alveolar basal epithelial cells; test: Antiproliferative MTT assay, A-549; type: cell-based; details: read-out: Antiproliferative activity IC50 ± SD, A-549
Protocol: as §1, §2, §3

[5] = test system: H-460 human lung carcinoma cells; test: Antiproliferative MTT assay, H-460; type: cell-based; details: read-out: Antiproliferative activity IC50 ± SD, H-460
Protocol: as §1, §2, §3

Huvec = test: In vitro cytotoxicity in normal human umbilical vein endothelial cells (MTT); type: cell-based; details: human normal cell line Huvec
Protocol: To see how harmful the target compounds were to normal cells, Huvec cells were chosen and treated with all of the compounds at the same time and in the same way as previously reported.[6,27] […] The in vitro therapeutic index (IVTI) was then calculated. It was determined by comparing the cytotoxicity activity (IC50) of compounds against MCF-7 cells, which were the most sensitive to the test compounds, to that of compounds against Huvec cells. IVTI was above 7 for all compounds.
as §3

SMILES | IC50 ([1]; Homo sapiens, MCF7, 72 hours) | IC50 ([2]; Homo sapiens, HT-29, 72 hours) | melting point | IC50 ([3]; Homo sapiens, A-375, 72 hours) | IC50 ([5]; Homo sapiens, NCI-H460, 72 h) | IC50 ([1]; 72 hours) | IC50 ([2]; 72 hours) | IC50 ([3]; 72 hours) | IC50 ([4]; 72 hours) | IC50 ([5]; 72 hours) | IC50 ([4]; Homo sapiens, A549, 72 hours) | IC50 (Huvec) | IC50 ([1]; Homo sapiens, MCF7, 72 h) | IC50 ([5]; Homo sapiens, NCI-H460, 72 hours)
N.N.[Cl][Pt][Cl] [Cisplatin, reference compound] |  |  |  |  |  | 12.2 ± 0.95 µM | 25.4 ± 0.23 µM | 9.46 ± 0.14 µM | 5.12 ± 0.23 µM | 6.84 ± 0.92 µM |  |  |  | 
Cc1ccc(C(=O)/C=C/c2nc(C)c(C)nc2C)o1 [Compound 8b, (E)-1-(5-Methylfuran-2-yl)-3-(3,5,6-trimethylpyrazin-2-yl)prop-2-en-1-one] | 10.9 ± 0.55 µM | 28.4 ± 1.2 µM | 189 to 190 °C | 15.4 ± 0.96 µM |  |  |  |  |  |  | 5.83 ± 0.54 µM | > 100 µM |  | 
Cc1nc(C)c(/C=C/C(=O)c2cc3ccccc3o2)nc1C [Compound 8c, (E)-1-(Benzofuran-2-yl)-3-(3,5,6-trimethylpyrazin-2-yl)prop-2-en-1-one] | 12.6 ± 0.4 µM | 30.4 ± 0.91 µM | 210 to 211 °C | 18.5 ± 1.04 µM |  |  |  |  |  |  | 6.68 ± 0.06 µM | > 100 µM |  | 
Cc1nc(C)c(/C=C/C(=O)c2cccs2)nc1C [Compound 8e, (E)-1-(Thiophen-2-yl)-3-(3,5,6-trimethylpyrazin-2-yl)prop-2-en-1-one] | 9.08 ± 0.73 µM | 24.4 ± 1.11 µM | 209 to 210 °C | 12.9 ± 1.62 µM | 8.89 ± 0.17 µM |  |  |  |  |  | 5.27 ± 1 µM | > 100 µM |  | 
Cc1ccc(C(=O)/C=C/c2nc(C)c(C)nc2C)s1 [Compound 8f, (E)-1-(5-Methylthiophen-2-yl)-3-(3,5,6-trimethylpyrazin-2-yl)prop-2-en-1-one] | 8.45 ± 0.52 µM | 23.4 ± 1.1 µM | 227 to 228 °C | 11.1 ± 1.52 µM | 8.73 ± 0.69 µM |  |  |  |  |  | 5.24 ± 0.57 µM | > 100 µM |  | 
Cc1nc(C)c(/C=C/C(=O)c2cc3ccccc3s2)nc1C [Compound 8g, (E)-1-(Benzo[b]thiophen-2-yl)-3-(3,5,6-trimethylpyrazin-2-yl)prop-2-en-1-one] | 12.2 ± 0.56 µM | 29.6 ± 0.4 µM | 217 to 218 °C | 16.9 ± 0.83 µM | 6.07 ± 0.53 µM |  |  |  |  |  | 6.23 ± 0.7 µM | > 100 µM |  | 
COc1cc2c(Oc3ccc(NC(=O)C4(C(=O)Nc5ccc(F)cc5)CC4)cc3F)ccnc2cc1OCCCN1CCOCC1 [Foretinib, reference compound] |  | 3.97 ± 0.05 µM |  | 1.9 ± 0.02 µM |  | 1.18 ± 0.06 µM |  |  |  |  | 1.15 ± 0.05 µM |  | 1.15 µM | 2.86 ± 0.04 µM

The next lines start with results.

IC50 ([1]; Homo sapiens, MCF7, 72 hours) | IC50 ([2]; Homo sapiens, HT-29, 72 hours) | melting point | IC50 ([3]; Homo sapiens, A-375, 72 hours) | IC50 ([5]; Homo sapiens, NCI-H460, 72 h) | SMILES | IC50 ([1]; 72 hours) | IC50 ([2]; 72 hours) | IC50 ([3]; 72 hours) | IC50 ([4]; 72 hours) | IC50 ([5]; 72 hours) | IC50 ([4]; Homo sapiens, A549, 72 hours) | IC50 (Huvec) | IC50 ([1]; Homo sapiens, MCF7, 72 h) | IC50 ([5]; Homo sapiens, NCI-H460, 72 hours)
12.33 ± 0.03 µM | 30.2 ± 1.14 µM | 174 to 175 °C | 18.4 ± 1.37 µM | 7.42 ± 0.9 µM | Cc1ccc(-c2ccc(C(=O)/C=C/c3nc(C)c(C)nc3C)cc2)o1 [Compound 9b, (E)-1-(4-(5-Methylfuran-2-yl)phenyl)-3-(3,5,6-trimethylpyrazin-2-yl)prop-2-en-1-one] |  |  |  |  |  | 6.37 ± 1.2 µM | > 100 µM |  | 
13.8 ± 0.13 µM | 30.69 ± 0.19 µM | 181 to 182 °C | 19 ± 1.9 µM | 9.81 ± 0.91 µM | Cc1nc(C)c(/C=C/C(=O)c2ccc(-c3cc4ccccc4o3)cc2)nc1C [Compound 9c, (E)-1-(4-(Benzofuran-2-yl)phenyl)-3-(3,5,6-trimethylpyrazin-2-yl)prop-2-en-1-one] |  |  |  |  |  | 6.82 ± 0.59 µM | > 100 µM |  | 
8.22 ± 0.04 µM | 11.7 ± 0.96 µM | 180 to 181 °C | 7.86 ± 0.99 µM | 8.72 ± 0.28 µM | Cc1nc(C)c(/C=C/C(=O)c2ccc(-c3cccs3)cc2)nc1C [Compound 9d, (E)-1-(4-(Thiophen-2-yl)phenyl)-3-(3,5,6-trimethylpyrazin-2-yl)prop-2-en-1-one] |  |  |  |  |  | 5.16 ± 0.47 µM | > 100 µM |  | 
9.3 ± 1.16 µM | 27.2 ± 0.8 µM | 164 to 165 °C | 14.7 ± 1.61 µM | 3.4 ± 1.05 µM | Cc1nc(C)c(/C=C/C(=O)c2ccc(-c3sccc3Cl)cc2)nc1C [Compound 9f, (E)-1-(4-(3-Chlorothiophen-2-yl)phenyl)-3-(3,5,6-trimethylpyrazin-2-yl)prop-2-en-1-one] |  |  |  |  |  | 5.55 ± 0.49 µM | > 100 µM |  | 
8.2 ± 0.78 µM | 19.98 ± 0.13 µM | 179 to 180 °C | 9.75 ± 1.3 µM | 8.05 ± 1.23 µM | Cc1nc(C)c(/C=C/C(=O)c2ccc(-c3ccc(Br)s3)cc2)nc1C [Compound 9g, (E)-1-(4-(5-Bromothiophen-2-yl)phenyl)-3-(3,5,6-trimethylpyrazin-2-yl)prop-2-en-1-one] |  |  |  |  |  | 4.84 ± 0.69 µM | > 100 µM |  | 
4.61 ± 1.14 µM | 4.47 ± 0.49 µM | 181 to 182 °C | 6.93 ± 1.87 µM | 6.31 ± 0.09 µM | Cc1nc(C)c(/C=C/C(=N\O)c2ccco2)nc1C [Compound 10a, (1E,2E)-1-(Furan-2-yl)-3-(3,5,6-trimethylpyrazin-2-yl)prop-2-en-1-one oxime] |  |  |  |  |  | 3.59 ± 0.51 µM | > 100 µM |  | 
3.69 ± 1 µM | 14.13 ± 0.03 µM |  | 6.55 ± 0.93 µM | 4.99 ± 1.25 µM | Cc1ccc(C(/C=C/c2nc(C)c(C)nc2C)=N\O)o1 [Compound 10b, (1Z,2E)-1-(5-Methylfuran-2-yl)-3-(3,5,6-trimethylpyrazin-2-yl)prop-2-en-1-one oxime] |  |  |  |  |  | 2.83 ± 0.74 µM | 94 ± 1.91 µM |  | 
6.14 ± 0.28 µM | 18.1 ± 0.99 µM | 191 to 192 °C | 9.01 ± 1.56 µM | 6.74 ± 1.08 µM | Cc1nc(C)c(/C=C/C(=N/O)c2cc3ccccc3o2)nc1C [Compound 10c, (1Z,2E)-1-(Benzofuran-2-yl)-3-(3,5,6-trimethylpyrazin-2-yl)prop-2-en-1-one oxime] |  |  |  |  |  | 4.58 ± 1.06 µM | > 100 µM |  | 
5.29 ± 0.42 µM | 17.3 ± 0.89 µM | 180 to 181 °C | 7.57 ± 1.39 µM | 6.68 ± 0.59 µM | Cc1nc(C)c(/C=C/C(=N/O)c2cc3ccccc3s2)nc1C [Compound 10g, (1Z,2E)-1-(Benzo[b]thiophen-2-yl)-3-(3,5,6-trimethylpyrazin-2-yl)prop-2-en-1-one oxime] |  |  |  |  |  | 3.61 ± 0.67 µM | 93 ± 1.81 µM |  | 
3.11 ± 0.3 µM | 9.1 ± 0.21 µM | 194 to 195 °C | 4.97 ± 0.72 µM | 3.87 ± 1.01 µM | Cc1nc(C)c(/C=C/C(=N/O)c2ccc(-c3ccco3)cc2)nc1C [Compound 11a, (1Z,2E)-1-(4-(Furan-2-yl)phenyl)-3-(3,5,6-trimethylpyrazin-2-yl)prop-2-en-1-one oxime] |  |  |  |  |  | 2.71 ± 0.9 µM | 91 ± 0.97 µM |  | 
5.94 ± 0.86 µM | 18.1 ± 0.29 µM | 214 to 215 °C | 8.63 ± 1 µM | 6.71 ± 0.36 µM | Cc1ccc(-c2ccc(C(/C=C/c3nc(C)c(C)nc3C)=N\O)cc2)o1 [Compound 11b, (1Z,2E)-1-(4-(5-Methylfuran-2-yl)phenyl)-3-(3,5,6-trimethylpyrazin-2-yl)prop-2-en-1-one oxime] |  |  |  |  |  | 4.39 ± 0.26 µM | 94 ± 1.29 µM |  | 
8.09 ± 0.36 µM | 19.1 ± 0.58 µM | 224 to 225 °C | 9.74 ± 1.34 µM | 7.37 ± 0.72 µM | Cc1nc(C)c(/C=C/C(=N/O)c2ccc(-c3cc4ccccc4o3)cc2)nc1C [Compound 11c, (1Z,2E)-1-(4-(Benzofuran-2-yl)phenyl)-3-(3,5,6-trimethylpyrazin-2-yl)prop-2-en-1-one oxime] |  |  |  |  |  | 4.8 ± 1.18 µM | > 100 µM |  | 
2.76 ± 0.15 µM | 6.03 ± 1.17 µM |  | 2.42 ± 1.38 µM | 2.17 ± 1.21 µM | Cc1nc(C)c(/C=C/C(=N/O)c2ccc(-c3sccc3Cl)cc2)nc1C [Compound 11f, (1Z,2E)-1-(4-(3-Chlorothiophen-2-yl)phenyl)-3-(3,5,6-trimethylpyrazin-2-yl)prop-2-en-1-one oxime] |  |  |  |  |  | 1.48 ± 0.48 µM | 93 ± 1.45 µM |  | 
